Values after ≈ are worked out from the molar mass of the structure shown.
Experiment: Solubility of polymorph A at room temperature (measurements taken at equilibrium)
Type: physicochemical
Conditions: for solubility: thermodynamic from solid
Experimental: The polymorph A of [1-(4-tert-Butylbenzyl)-5-(3-methylphenyl)-1H-indol-3-yl](oxo)acetic acid of this invention can also be characterized by its solubility rate which is shown in FIG. 5. The solubility rate intrinsic dissolution was conducted in pH 7.5 phosphate buffer medium using USP apparatus 2 (paddle) at 50 rpm. The dissolution rate may be influenced by disk rotation speed and other conditions. The solubility of polymorph A of [1-(4-tert-Butylbenzyl)-5-(3- methylphenyl)-1H-indol-3-yl](oxo)acetic acid has been determined in a number of solvents and the results are listed in Table 5. The solubilities listed in Table 5 are based on measurements taken at equilibrium.

Cc1cccc(-c2ccc3c(c2)c(C(=O)C(=O)O)cn3Cc2ccc(C(C)(C)C)cc2)c1 [Polymorph A, [1-(4-tert-Butylbenzyl)-5-(3-methylphenyl)1H-indol-3-yl](oxo)acetic acid]
solubility (2% polysorbate 80/0.5% methylcellulose, aqueous with cosolvent or surfactant or cyclodextrin, 2% Polysorbate80/0.5% Methylcellulose): 1.09 mg/mL (≈ 2.56 mM)
Solubility of Polymorph A (Capryol 90): 73.8 mg/g
Solubility of Polymorph A (Cremophore EL): 290 mg/g
Solubility of Polymorph A (Labrasol): >160 mg/g
Solubility of Polymorph A (PEG 200): >100 mg/g
Solubility of Polymorph A (PEG 400): >100 mg/g
Solubility of Polymorph A (Phosal 53 MCT): 311 mg/g
Solubility of Polymorph A (Polysorbate 80): >200 mg/g
solubility (organic solvent or mixture, Acetone): 277 mg/mL (≈ 651 mM)
solubility (organic solvent or mixture, DMSO): > 500 mg/mL
solubility (organic solvent or mixture, Ethanol): 12.2 mg/mL (≈ 28.8 mM)
solubility (organic solvent or mixture, Propylene Carbonate): 103 mg/mL (≈ 243 mM)
solubility (organic solvent or mixture, Propylene Glycol): 7.1 mg/mL (≈ 16.7 mM)
solubility (Deionized Water): 0.024 mg/mL (≈ 0.0564 mM)

Source: US20080188542A1, “NOVEL INDOLE POLYMORPHS” (Wyeth, priority 2007, published 2008)
